According to the supplement of paper PMC11061612:

Columns and labels:
Experiment in all cases: Bliss excess, mean over the matrix (fraction); higher = more synergy
[1] = test system: GR-ST (B-Lymphoblastic Leukemia)
Summary of the method: (§1)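 Bliss excess equals the observed combination effect minus the expected value EA + EB − EA·EB, where EA and EB are the effects of each agent alone. Combination Emax is the second-highest inhibition within the matrix. Inhibition was scaled from CellTiter-Glo 2.0 luminescence, with 0 set by vehicle wells and 1 by blank wells, after 72 hours of two-drug dosing of cells plated in 1536-well plates.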

[2] = test system: MOLT-16 (T-Lymphoblastic Leukemia)
Summary of the method: as §1

ES1 (Ewing's Sarcoma) = test system: ES1 (Ewing's Sarcoma)
Summary of the method: as §1

WIL2-NS (Non-Cancerous) = test system: WIL2-NS (Non-Cancerous)
Summary of the method: as §1

U251 (Low Grade Glioma) = test system: U251 (Low Grade Glioma)
Summary of the method: as §1

[3] = test system: BFTC-905 (Bladder Carcinoma)
Summary of the method: as §1

[4] = test system: KM12 (Colorectal Carcinoma)
Summary of the method: as §1

LN-18 (Glioblastoma) = test system: LN-18 (Glioblastoma)
Summary of the method: as §1

[5] = test system: K-562 (Chronic Myelogenous Leukemia)
Summary of the method: as §1

CHP-212 (Neuroblastoma) = test system: CHP-212 (Neuroblastoma)
Summary of the method: as §1

[6] = test system: DND-41 (T-Lymphoblastic Leukemia)
Summary of the method: as §1

[7] = test system: TOV-112D (Ovarian Carcinoma)
Summary of the method: as §1

ES8 (Ewing's Sarcoma) = test system: ES8 (Ewing's Sarcoma)
Summary of the method: as §1

[8] = test system: MS751 (Cervical Carcinoma)
Summary of the method: as §1

TC-71 (Ewing's Sarcoma) = test system: TC-71 (Ewing's Sarcoma)
Summary of the method: as §1

[9] = test system: PANC-08-13 (Pancreatic Carcinoma)
Summary of the method: as §1

[10] = test system: HL-60 (Acute Myeloid Leukemia)
Summary of the method: as §1

[11] = test system: SR (Other Blood Carcinomas)
Summary of the method: as §1

[12] = test system: NCI-H1792 (Lung Adenocarcinoma)
Summary of the method: as §1

[13] = test system: KYSE-180 (Esophageal Squamous Cell Carcinoma)
Summary of the method: as §1

Row | Structure (SMILES) | Bliss excess [1] | Bliss excess [2] | Bliss excess (ES1 (Ewing's Sarcoma)) | Bliss excess (WIL2-NS (Non-Cancerous)) | Bliss excess (U251 (Low Grade Glioma)) | Bliss excess [3] | Bliss excess [4] | Bliss excess (LN-18 (Glioblastoma)) | Bliss excess [5] | Bliss excess (CHP-212 (Neuroblastoma)) | Bliss excess [6] | Bliss excess [7] | Bliss excess (ES8 (Ewing's Sarcoma)) | Bliss excess [8] | Bliss excess (TC-71 (Ewing's Sarcoma)) | Bliss excess [9] | Bliss excess [10] | Bliss excess [11] | Bliss excess [12] | Bliss excess [13]
1 | CCN(CCO)CCCOc1ccc2c(Nc3cc(CC(=O)Nc4cccc(F)c4)[nH]n3)ncnc2c1 [AZD2811] + O=C(c1cc(Cc2n[nH]c(=O)c3ccccc23)ccc1F)N1CCN(C(=O)C2CC2)CC1 [Olaparib] (first compound max 1 µM, 7x7, partner max 10 µM) | -0.0358 | 0.0395 | 0.0749 | -0.033 | 0.0281 | -0.0029 | 0.0068 | -0.0299 | 0.0216 | -0.0249 | -0.0059 | 0.0355 | -0.0296 | -0.0068 | -0.0772 | -0.0087 | -0.082 | -0.0064 | -0.0029 | 0.0207
2 | CN(CCO)CC[C@H](CSc1ccccc1)Nc1ccc(S(=O)(=O)NC(=O)c2ccc(N3CCC([C@@H](O)c4ccccc4-c4ccc(Cl)cc4)CC3)cc2)cc1S(=O)(=O)C(F)(F)F [AZD4320] + C1CN(CCC1(C(=O)N[C@@H](CCO)C2=CC=C(C=C2)Cl)N)C3=NC=NC4=C3C=CN4 [Capivasertib] (first compound max 1 µM, 7x7, partner max 3 µM) | 0.0039 | -0.0201 | 0.0027 | 0.0219 | -0.0689 | -0.0552 | -0.0572 | -0.053 | -0.0155 | -0.0667 | -0.0205 | -0.0183 | -0.0427 | -0.009 | -0.0699 | -0.0374 | -0.0438 | 0.095 | -0.0643 | -0.0057
3 | CN(CCO)CC[C@H](CSc1ccccc1)Nc1ccc(S(=O)(=O)NC(=O)c2ccc(N3CCC([C@@H](O)c4ccccc4-c4ccc(Cl)cc4)CC3)cc2)cc1S(=O)(=O)C(F)(F)F [AZD4320] + C=CCn1c(=O)c2cnc(Nc3ccc(N4CCN(C)CC4)cc3)nc2n1-c1cccc(C(C)(C)O)n1 [AZD1775] (first compound max 1 µM, partner max 1 µM) | -0.0585 | 0.0417 | 0.0958 | 0.0252 | -0.0676 | -0.029 | -0.0316 | 0.0152 | 0.0582 | -0.0137 | 0.049 | -0.0106 | 0.0959 | -0.0494 | 0.0339 | -0.0019 | 0.0574 | 0.254 | 0.0128 | 0.0258
4 | CN(CCO)CC[C@H](CSc1ccccc1)Nc1ccc(S(=O)(=O)NC(=O)c2ccc(N3CCC([C@@H](O)c4ccccc4-c4ccc(Cl)cc4)CC3)cc2)cc1S(=O)(=O)C(F)(F)F [AZD4320] + CCN(CCO)CCCOc1ccc2c(Nc3cc(CC(=O)Nc4cccc(F)c4)[nH]n3)ncnc2c1 [AZD2811] (first compound max 1 µM, 7x7, partner max 1 µM) | -0.0272 | -0.0049 | 0.142 | 0.0006 | 0.0287 | 0.121 | 0.0173 | -0.0187 | 0.0055 | 0.0016 | 0.0382 | 0.0419 | 0.0276 | 0.0064 | -0.0299 | -0.0166 | -0.0281 | 0.0343 | -0.0267 | 0.0189
5 | CN(CCO)CC[C@H](CSc1ccccc1)Nc1ccc(S(=O)(=O)NC(=O)c2ccc(N3CCC([C@@H](O)c4ccccc4-c4ccc(Cl)cc4)CC3)cc2)cc1S(=O)(=O)C(F)(F)F [AZD4320] + CN(C)CCCOc1ccc(-c2ccc3ncc4c(c3c2)n(C2CCOCC2)c(=O)n4C)cn1 [AZD0156] (first compound max 1 µM, 7x7, partner max 1 µM) | -0.0358 | -0.0592 | -0.0129 | 0.0109 | -0.0374 | -0.017 | -0.0489 | -0.0015 | -0.0027 | -0.056 | -0.0036 | -0.0078 | 0.0079 | -0.0248 | -0.0112 | -0.0051 | 0.0228 | 0.0454 | -0.0144 | -0.0037
6 | CN(CCO)CC[C@H](CSc1ccccc1)Nc1ccc(S(=O)(=O)NC(=O)c2ccc(N3CCC([C@@H](O)c4ccccc4-c4ccc(Cl)cc4)CC3)cc2)cc1S(=O)(=O)C(F)(F)F [AZD4320] + C[C@@H]1COCCN1C2=NC(=NC(=C2)C3(CC3)[S@](=N)(=O)C)C4=C5C=CNC5=NC=C4 [AZD6738] (first compound max 1 µM, 7x7, partner max 10 µM) | -0.0413 | -0.0095 | 0.0567 | -0.0004 | -0.0272 | -0.0286 | -0.0272 | -0.0705 | -0.0245 | -0.0496 | -0.0028 | 0.0134 | 0.155 | 0.0029 | 0.075 | -0.019 | -0.0348 | -0.0068 | -0.0647 | -0.0042
7 | CN(CCO)CC[C@H](CSc1ccccc1)Nc1ccc(S(=O)(=O)NC(=O)c2ccc(N3CCC([C@@H](O)c4ccccc4-c4ccc(Cl)cc4)CC3)cc2)cc1S(=O)(=O)C(F)(F)F [AZD4320] + Cc1cc2ncnn2cc1Nc1ncc2c(n1)n(C1CCOCC1)c(=O)n2C [AZD7648] (first compound max 1 µM, 7x7, partner max 10 µM) | -0.0157 | -0.0059 | -0.0222 | -0.029 | -0.0405 | -0.0375 | -0.0234 | 0.0064 | -0.0332 | -0.0441 | -0.0011 | -0.019 | -0.0594 | -0.0353 | -0.0201 | -0.042 | 0.0074 | -0.0189 | -0.024 | -0.0091
8 | CN(CCO)CC[C@H](CSc1ccccc1)Nc1ccc(S(=O)(=O)NC(=O)c2ccc(N3CCC([C@@H](O)c4ccccc4-c4ccc(Cl)cc4)CC3)cc2)cc1S(=O)(=O)C(F)(F)F [AZD4320] + Cn1cnc2c(F)c(Nc3ccc(Br)cc3Cl)c(C(=O)NOCCO)cc21 [Selumetinib] (first compound max 1 µM, 7x7, partner max 3 µM) | -0.0417 | -0.0335 | 0.0147 | 0.0074 | -0.0087 | -0.0411 | 0.0423 | 0.031 | 0.0465 | -0.0108 | -0.0181 | 0.0107 | -0.0479 | 0.0636 | 0.0614 | 0.0195 | 0.0259 | 0.0208 | 0.0416 | 0.0148
9 | COc1nnc2ccc(N3CCC(c4ccc(OCCN5CCN(C)C(=O)[C@H]5C)cc4)CC3)nn12 [AZD5153] + C=CCn1c(=O)c2cnc(Nc3ccc(N4CCN(C)CC4)cc3)nc2n1-c1cccc(C(C)(C)O)n1 [AZD1775] (first compound max 1 µM, partner max 1 µM) | -0.0897 | -0.0021 | -0.0845 | -0.105 | 0.0398 | -0.0559 | -0.0456 | -0.0502 | -0.0718 | -0.0294 | -0.0027 | -0.0434 | -0.0563 | 0.064 | 0.0354 | 0.0108 | -0.0519 | -0.074 | -0.0428 | -0.0323
10 | COc1nnc2ccc(N3CCC(c4ccc(OCCN5CCN(C)C(=O)[C@H]5C)cc4)CC3)nn12 [AZD5153] + CC1(C)CCC(CN2CCN(c3ccc(C(=O)NS(=O)(=O)c4ccc(NCC5CCOCC5)c([N+](=O)[O-])c4)c(Oc4cnc5[nH]ccc5c4)c3)CC2)=C(c2ccc(Cl)cc2)C1 [Venetoclax] (first compound max 1 µM, 7x7, partner max 1 µM) | -0.0399 | 0.0309 | -0.0896 | -0.0495 | -0.0872 | -0.0577 | -0.0571 | 0.0348 | -0.0494 | -0.085 | 0.0352 | -0.0474 | -0.0594 | -0.0752 | -0.0443 | 0.0065 | -0.0379 | -0.0209 | -0.0215 | -0.0193
11 | COc1nnc2ccc(N3CCC(c4ccc(OCCN5CCN(C)C(=O)[C@H]5C)cc4)CC3)nn12 [AZD5153] + CCN(CCO)CCCOc1ccc2c(Nc3cc(CC(=O)Nc4cccc(F)c4)[nH]n3)ncnc2c1 [AZD2811] (first compound max 1 µM, 7x7, partner max 1 µM) | -0.0238 | -0.0173 | -0.0504 | -0.0421 | 0.0064 | -0.0452 | -0.0112 | -0.107 | -0.0153 | -0.027 | 0.0529 | -0.0297 | -0.0119 | 0.0349 | -0.0316 | -0.0175 | -0.0076 | -0.0672 | -0.083 | 0.0356
12 | COc1nnc2ccc(N3CCC(c4ccc(OCCN5CCN(C)C(=O)[C@H]5C)cc4)CC3)nn12 [AZD5153] + C[C@@H]1COCCN1C2=NC(=NC(=C2)C3(CC3)[S@](=N)(=O)C)C4=C5C=CNC5=NC=C4 [AZD6738] (first compound max 1 µM, 7x7, partner max 10 µM) | -0.0956 | -0.0105 | -0.015 | -0.0766 | 0.0544 | -0.05 | 0.0526 | -0.02 | -0.0303 | -0.0197 | 0.0628 | 0.0306 | -0.0096 | 0.0833 | 0.0254 | 0.035 | -0.0003 | -0.016 | -0.0628 | 0.0656
13 | COc1nnc2ccc(N3CCC(c4ccc(OCCN5CCN(C)C(=O)[C@H]5C)cc4)CC3)nn12 [AZD5153] + Cc1c2c(nn1C)CSCc1cc(n(C)n1)CSc1cc(c3ccccc3c1)OCCCc1c(C(=O)O)n(C)c3c-2c(Cl)ccc13 [AZD5991] (first compound max 1 µM, 7x7, partner max 1 µM) | -0.027 | -0.0072 | -0.037 | -0.0255 | -0.0253 | -0.0056 | -0.0473 | -0.0751 | -0.0496 | -0.0281 | 0.0181 | 0.0347 | 0.0357 | 0.0038 | 0.0285 | 0.0228 | -0.0038 | -0.0275 | -0.0008 | -0.0033
